Source: patent publication US7846918B2, “Exemestane compounds, compositions and related methods of use” (Endece, LLC, priority 2005, dated 2010)

Tests used:
Format in all cases: cell-based
[1] = tested on: MDA-MB-231; test: MTS cell growth inhibition assay, MDA-MB-231; conditions: Homo sapiens, MDA-MB-231, Breast; for inhibition at 200 µM: read-out: Mean Percent Response at 200 μM (percent of cell growth inhibited); for IC50: mean of 2 independent trials
Method: (§1) Activity Of 6-Methyloxamethyl Exemestane Compounds Against Cancer Cell Lines. Cancer-derived cell lines were used for the following growth inhibition assay. The ability of the compound of Formula (B) above and the compound of Formula (D) above to inhibit cancer-derived cell growth was compared to exemestane as a control.
(§2) Cell viability is determined using the MTS assay. This calorimetric procedure measures conversion of the MTS reagent (a tetrazoleum salt) to formazan by living cells. Formazan production is quantified by spectrophotometric measurement at 490 nm and is proportional to viable cell number. Cells are cultured and treated. Following treatment, 100 μl of growth medium is removed and cells incubated with 20 μl CellTiter 96® AQueous One Solution Reagent (1.9 mg/ml in PBS, pH 6.0) for 1-3 hours at 37° C. Absorbance (OD) values are measured using a μQuant microplate reader at a single wavelength of 490 nm.
(§3) Additional assays were performed to evaluate the growth-inhibiting activity of the compound of Formula (B) above and the compound of Formula (D) compared to exemestane as a control.

[2] = tested on: Capan-1; test: MTS cell growth inhibition assay, Capan-1; conditions: Homo sapiens, Capan-1, Pancreas; for inhibition at 200 µM: read-out: Mean Percent Response at 200 μM (percent of cell growth inhibited); for IC50: mean of 2 independent trials
Method: as §1, §2, §3

[3] = tested on: HT-29; test: MTS cell growth inhibition assay, HT-29; conditions: Homo sapiens, HT-29, Colon; for inhibition at 200 µM: read-out: Mean Percent Response at 200 μM (percent of cell growth inhibited); for IC50: mean of 2 independent trials
Method: as §1, §2, §3

[4] = tested on: MV 522; test: MTS cell growth inhibition assay, MV 522; conditions: MV522, MV 522, Lung; for inhibition at 200 µM: read-out: Mean Percent Response at 200 μM (percent of cell growth inhibited); for IC50: mean of 2 independent trials
Method: as §1, §2, §3

[5] = tested on: SK-OV-3; test: MTS cell growth inhibition assay, SK-OV-3; conditions: Homo sapiens, SK-OV-3, Ovarian; for inhibition at 200 µM: read-out: Mean Percent Response at 200 μM (percent of cell growth inhibited); for IC50: mean of 2 independent trials
Method: as §1, §2, §3

[6] = tested on: a variety of cancer cell lines; test: Growth inhibition across the cancer cell line panel; conditions: for activity against cancer cell lines, in words: text summary of Tables 1-3
Method: as §1, §2, §3

[7] = tested on: PC-3; test: MTS cell growth inhibition assay, PC-3; conditions: Homo sapiens, PC-3, Prostrate; for inhibition at 200 µM: read-out: Mean Percent Response at 200 μM (percent of cell growth inhibited); for IC50: mean of 2 independent trials
Method: as §1, §2, §3

[8] = tested on: MCF-7; test: MTS cell growth inhibition assay, MCF-7; conditions: Homo sapiens, MCF7, MCF-7, Breast; for inhibition at 200 µM: read-out: Mean Percent Response at 200 μM (percent of cell growth inhibited); for IC50: mean of 2 independent trials
Method: as §1, §2, §3

[9] = tested on: NIH: H23; test: MTS cell growth inhibition assay, NIH: H23; conditions: NIH: H23, Lung; for inhibition at 200 µM: read-out: Mean Percent Response at 200 μM (percent of cell growth inhibited); for IC50: mean of 2 independent trials
Method: as §1, §2, §3

[10] = tested on: NIH: OVCAR-3; test: MTS cell growth inhibition assay, NIH: OVCAR-3; conditions: Homo sapiens, NIH: OVCAR-3, Ovarian; for inhibition at 200 µM: read-out: Mean Percent Response at 200 μM (percent of cell growth inhibited); for IC50: mean of 2 independent trials
Method: as §1, §2, §3

[11] = tested on: Capan-2; test: MTS cell growth inhibition assay, Capan-2; conditions: Homo sapiens, Capan-2, Pancreas; for inhibition at 200 µM: read-out: Mean Percent Response at 200 μM (percent of cell growth inhibited); for IC50: mean of 2 independent trials
Method: as §1, §2, §3

For COC[C@@H]1C[C@@H]2[C@H](CC[C@]3(C)C(=O)CC[C@@H]23)[C@@]2(C)C=CC(=O)C=C12 [Exemestane 6R], the inhibition at 200 µM [1] was 95%, the IC50 [1] was 77 µM and the inhibition at 200 µM [2] was 28%. The IC50 [2] was 176 µM, the inhibition at 200 µM [3] was 80% and the IC50 [3] was 110 µM. It also gave an inhibition at 200 µM [4] of 96%, an IC50 [4] of 95 µM and an inhibition at 200 µM [5] of 98%. The IC50 [5] was 106 µM, the inhibition at 200 µM ([6]; see Table 2, 200 μM, read-out: inhibition against a variety of cancer cell lines) was 95 to 98% and the inhibition at 200 µM [7] was 78%. The IC50 [7] was 108 µM, the inhibition at 200 µM [8] was 56% and the IC50 [8] was > 200 µM. It also gave an inhibition at 200 µM [9] of 65%, an IC50 [9] of 106 µM and an inhibition at 200 µM [10] of 78%. The IC50 [10] was 54 µM, the inhibition at 200 µM [11] was 46% and the IC50 [11] was 104 µM.
In the case of COC[C@H]1C[C@@H]2[C@H](CC[C@]3(C)C(=O)CC[C@@H]23)[C@@]2(C)C=CC(=O)C=C12 [Exemestane 6S], the inhibition at 200 µM [1] is reported as 21%, the IC50 [1] is reported as > 200 µM and the inhibition at 200 µM [2] is reported as 5%. For the same molecule, the IC50 [2] was > 200 µM, the inhibition at 200 µM [3] was 8% and the IC50 [3] was > 200 µM. The inhibition at 200 µM [4] was 19%, the IC50 [4] was > 200 µM and the inhibition at 200 µM [5] was 0.3%. The IC50 [5] was > 200 µM, the “activity against cancer cell lines, in words” value [6] was “works best against cell lines that are estrogen (−) and/or aromatase (+)” and the inhibition at 200 µM [7] was 0%. The IC50 [7] was > 200 µM, the inhibition at 200 µM [8] was 0% and the IC50 [8] was > 200 µM. The inhibition at 200 µM [9] was 12%, the IC50 [9] was > 200 µM and the inhibition at 200 µM [10] was 6%. For the same molecule, the IC50 [10] was > 200 µM, the inhibition at 200 µM [11] was 15% and the IC50 [11] was > 200 µM.
C=C1C[C@@H]2[C@H](CC[C@]3(C)C(=O)CC[C@@H]23)[C@@]2(C)C=CC(=O)C=C12 [Exemestane, 6-methylenandrosta-1,4-diene-3,17-dione] showed an inhibition at 200 µM [1] of 67%, an IC50 [1] of 64 µM and an inhibition at 200 µM [2] of 74%. For the same molecule, the IC50 [2] was 98 µM, the inhibition at 200 µM [3] was 75% and the IC50 [3] was 103 µM. For the same molecule, the inhibition at 200 µM [4] was 79%, the IC50 [4] was 103 µM and the inhibition at 200 µM [5] was 85%. The IC50 [5] was 78 µM, the “activity against cancer cell lines, in words” value [6] was “marginal activity” and the inhibition at 200 µM [7] was 67%. The IC50 [7] was 105 µM, the inhibition at 200 µM [8] was 68% and the IC50 [8] was 96 µM. The inhibition at 200 µM [9] was 81%, the IC50 [9] was 50 µM and the inhibition at 200 µM [10] was 88%. The IC50 [10] was 73 µM, the inhibition at 200 µM [11] was 56% and the IC50 [11] was 94 µM.
